From ChEMBL document CHEMBL1201862, “PubChem BioAssay data set” (2004)
Each block holds one compound with its values, some of them ahead of it. Activity calls are given as the source filed them.

What was measured:
[1] = cAMP pathway inhibition in counterscreen cell line – TR-FRET cAMP detection, counter-screen for MC4R biased antagonist project, dose response (AID 602305); assay type: functional, cell-based;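 further: U2OS cells stimulated with forskolin near its EC80 as the cAMP inducer; potency is for inhibition of forskolin-stimulated cAMP signaling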
Melanocortin receptor 4 = Melanocortin receptor 4 (Homo sapiens, UniProt P32245); assay: inhibitors of MC4R cAMP signaling – cell-based, TR-FRET, biased antagonists, dose response (AID 602298); assay type: functional;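 further: antagonist potency against agonist-stimulated cAMP production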
Melanocortin receptor 4, sequence (P32245 whole entry): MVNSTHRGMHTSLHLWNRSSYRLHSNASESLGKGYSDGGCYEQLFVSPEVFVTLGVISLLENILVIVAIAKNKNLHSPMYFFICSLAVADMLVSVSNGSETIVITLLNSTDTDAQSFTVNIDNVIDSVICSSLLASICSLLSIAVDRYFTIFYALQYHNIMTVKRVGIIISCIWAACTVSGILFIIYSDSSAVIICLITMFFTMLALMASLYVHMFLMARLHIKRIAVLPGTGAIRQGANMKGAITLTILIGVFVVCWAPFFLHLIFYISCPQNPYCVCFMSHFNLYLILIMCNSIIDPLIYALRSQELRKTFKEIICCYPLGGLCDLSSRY

Large T antigen = Large T antigen (Simian virus 40, UniProt P03070); assay type: functional, Betapolyomavirus macacae;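 further: Confirmatory-stage PubChem screen for compounds that inhibit SV40 T antigen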
[2] = target: Glucose-6-phosphate 1-dehydrogenase (Homo sapiens, UniProt P11413); assay: inhibition of Homo sapiens G6PD, dose series – biochemical, fluorescence, selectivity assay for P. falciparum G6PD inhibitor project, dose response (AID 504792); assay type: functional
[3] = target: T1, Mitochondrial peptide methionine sulfoxide reductase (Bos taurus, UniProt P54149); assay: Absorbance-based biochemical high throughput dose response assay for activators of Methionine sulfoxide reductase A (MsrA).; assay type: functional
T1 sequence (P54149 whole entry): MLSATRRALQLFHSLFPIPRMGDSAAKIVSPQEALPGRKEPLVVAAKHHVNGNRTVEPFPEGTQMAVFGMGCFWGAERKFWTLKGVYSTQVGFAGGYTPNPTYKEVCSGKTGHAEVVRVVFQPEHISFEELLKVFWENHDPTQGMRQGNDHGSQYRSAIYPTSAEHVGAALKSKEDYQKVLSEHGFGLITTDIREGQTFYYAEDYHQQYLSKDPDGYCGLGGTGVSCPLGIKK

[4] = Counterscreen for IDE inhibitors: Luminescence-based cell-based high throughput dose response assay to identify compounds that are cytotoxic to HEK cells. [Related pubchem assays: 434962 (Primary screen (IDE inhibitors in singlicate)), 449730 (Counterscreen (Cytotoxicity in triplicate)), 435028 (Confirmation (IDE inhibitors in triplicate)) …; assay type: functional; settings: HEK293
Insulin-degrading enzyme = target: T2, Insulin-degrading enzyme (Homo sapiens, UniProt P14735); assay: Dose Response: Fluorescence polarization-based cell-based high throughput dose response assay for inhibitors of insulin-degrading enzyme (IDE). [Related pubchem assays: 434962 (Primary screen (IDE inhibitors in singlicate)), 449730 (Counterscreen (Cytotoxicity in triplicate)), 435028 (Confirmation (IDE inhibitors in triplicate)), 434984 (Summary …; assay type: functional
T2 sequence (P14735 whole entry): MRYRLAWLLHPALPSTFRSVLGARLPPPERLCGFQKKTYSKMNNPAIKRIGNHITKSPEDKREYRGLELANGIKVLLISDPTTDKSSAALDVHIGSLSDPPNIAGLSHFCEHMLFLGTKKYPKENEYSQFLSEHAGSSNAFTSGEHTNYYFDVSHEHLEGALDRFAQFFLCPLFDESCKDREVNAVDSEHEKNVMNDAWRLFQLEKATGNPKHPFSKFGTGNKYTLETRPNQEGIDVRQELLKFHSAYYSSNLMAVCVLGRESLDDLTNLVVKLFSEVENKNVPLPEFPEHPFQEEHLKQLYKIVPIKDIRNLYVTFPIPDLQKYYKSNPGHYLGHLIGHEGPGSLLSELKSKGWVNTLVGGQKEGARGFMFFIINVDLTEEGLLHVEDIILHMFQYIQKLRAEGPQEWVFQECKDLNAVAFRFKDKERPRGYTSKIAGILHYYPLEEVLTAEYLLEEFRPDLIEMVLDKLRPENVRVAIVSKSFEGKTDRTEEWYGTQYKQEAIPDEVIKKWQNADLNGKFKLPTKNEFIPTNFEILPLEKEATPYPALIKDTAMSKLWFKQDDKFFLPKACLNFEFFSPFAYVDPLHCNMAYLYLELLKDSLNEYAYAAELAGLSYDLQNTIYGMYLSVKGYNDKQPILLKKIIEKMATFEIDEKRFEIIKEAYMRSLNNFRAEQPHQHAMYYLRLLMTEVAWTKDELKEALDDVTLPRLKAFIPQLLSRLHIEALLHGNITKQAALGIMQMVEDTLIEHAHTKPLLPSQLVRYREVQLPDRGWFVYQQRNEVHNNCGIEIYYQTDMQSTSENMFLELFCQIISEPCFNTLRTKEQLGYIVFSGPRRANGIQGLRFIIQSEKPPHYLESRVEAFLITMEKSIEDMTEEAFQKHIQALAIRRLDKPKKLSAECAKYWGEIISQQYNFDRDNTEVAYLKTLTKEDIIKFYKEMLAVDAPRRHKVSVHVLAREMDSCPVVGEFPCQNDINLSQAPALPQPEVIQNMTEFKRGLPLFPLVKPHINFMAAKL

[5] = target: Potassium voltage-gated channel subfamily KQT member 2 (Rattus norvegicus, UniProt O88943); assay: blockers of KCNQ2 channel current – cell-based, automated electrophysiology, set II, rat KCNQ2, dose response (AID 588637); assay type: functional
[6] = target: BDNF/NT-3 growth factors receptor (Homo sapiens, UniProt Q16620); assay type: functional;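 further: NTRK2 measured as one member of a broad kinome-wide kinase profiling panel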
BDNF/NT-3 growth factors receptor, sequence (Q16620 whole entry): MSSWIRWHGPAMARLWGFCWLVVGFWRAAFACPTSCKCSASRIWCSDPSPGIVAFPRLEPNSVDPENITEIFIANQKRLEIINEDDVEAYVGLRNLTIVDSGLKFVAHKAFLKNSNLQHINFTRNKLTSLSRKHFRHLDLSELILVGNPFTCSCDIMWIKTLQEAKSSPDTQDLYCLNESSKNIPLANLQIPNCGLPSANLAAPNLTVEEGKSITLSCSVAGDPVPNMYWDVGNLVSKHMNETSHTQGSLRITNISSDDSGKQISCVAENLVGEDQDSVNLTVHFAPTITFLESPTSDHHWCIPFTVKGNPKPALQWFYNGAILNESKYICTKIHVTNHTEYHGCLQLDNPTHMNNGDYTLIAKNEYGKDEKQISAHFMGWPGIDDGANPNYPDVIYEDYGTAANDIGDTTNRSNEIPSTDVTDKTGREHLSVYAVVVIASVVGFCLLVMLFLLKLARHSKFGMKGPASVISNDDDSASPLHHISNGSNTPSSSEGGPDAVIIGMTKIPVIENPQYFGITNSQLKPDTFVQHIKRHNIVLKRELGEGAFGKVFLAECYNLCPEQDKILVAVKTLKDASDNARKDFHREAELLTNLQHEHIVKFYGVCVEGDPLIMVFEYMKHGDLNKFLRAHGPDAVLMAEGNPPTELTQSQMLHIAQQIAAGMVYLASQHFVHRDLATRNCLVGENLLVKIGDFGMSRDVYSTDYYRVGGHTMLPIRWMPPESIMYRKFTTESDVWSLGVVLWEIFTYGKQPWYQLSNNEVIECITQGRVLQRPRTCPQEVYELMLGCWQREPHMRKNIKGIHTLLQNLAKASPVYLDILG

[7] = target: T3, Tyrosine-protein kinase receptor TYRO3 (Homo sapiens, UniProt Q06418); assay type: functional;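 further: TYRO3 value obtained as one member of a kinome-wide profiling panel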
T3 sequence (Q06418 whole entry): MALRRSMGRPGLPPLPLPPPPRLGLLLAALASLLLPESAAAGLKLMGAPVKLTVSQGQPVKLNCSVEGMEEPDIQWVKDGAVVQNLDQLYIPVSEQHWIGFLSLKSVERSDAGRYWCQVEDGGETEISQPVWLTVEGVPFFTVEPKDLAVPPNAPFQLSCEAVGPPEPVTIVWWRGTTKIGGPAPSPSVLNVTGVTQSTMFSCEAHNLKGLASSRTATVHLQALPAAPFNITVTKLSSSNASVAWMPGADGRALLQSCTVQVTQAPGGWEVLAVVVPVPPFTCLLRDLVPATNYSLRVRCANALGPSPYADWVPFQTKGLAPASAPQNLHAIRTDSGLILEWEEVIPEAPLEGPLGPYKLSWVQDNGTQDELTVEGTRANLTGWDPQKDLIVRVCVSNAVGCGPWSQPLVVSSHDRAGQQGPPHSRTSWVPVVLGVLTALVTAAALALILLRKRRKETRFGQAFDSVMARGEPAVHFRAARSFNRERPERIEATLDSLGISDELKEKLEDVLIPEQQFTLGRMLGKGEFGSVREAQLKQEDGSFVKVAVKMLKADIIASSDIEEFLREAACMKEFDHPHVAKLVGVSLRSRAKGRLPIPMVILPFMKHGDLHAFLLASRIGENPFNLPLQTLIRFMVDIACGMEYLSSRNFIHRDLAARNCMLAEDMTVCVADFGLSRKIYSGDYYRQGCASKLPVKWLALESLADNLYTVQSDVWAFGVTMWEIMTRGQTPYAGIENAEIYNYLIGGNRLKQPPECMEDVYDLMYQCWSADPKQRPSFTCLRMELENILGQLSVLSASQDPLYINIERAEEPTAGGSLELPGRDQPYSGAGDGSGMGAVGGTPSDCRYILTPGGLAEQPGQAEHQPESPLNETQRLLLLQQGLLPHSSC

[8] = target: Macrophage colony-stimulating factor 1 receptor (Homo sapiens, UniProt P07333); assay type: functional;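 further: value comes from the Navigating the Kinome screening panel, CSF1R member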
[9] = target: Vascular endothelial growth factor receptor 2 (Homo sapiens, UniProt P35968); assay type: functional
Vascular endothelial growth factor receptor 2, sequence (P35968 whole entry): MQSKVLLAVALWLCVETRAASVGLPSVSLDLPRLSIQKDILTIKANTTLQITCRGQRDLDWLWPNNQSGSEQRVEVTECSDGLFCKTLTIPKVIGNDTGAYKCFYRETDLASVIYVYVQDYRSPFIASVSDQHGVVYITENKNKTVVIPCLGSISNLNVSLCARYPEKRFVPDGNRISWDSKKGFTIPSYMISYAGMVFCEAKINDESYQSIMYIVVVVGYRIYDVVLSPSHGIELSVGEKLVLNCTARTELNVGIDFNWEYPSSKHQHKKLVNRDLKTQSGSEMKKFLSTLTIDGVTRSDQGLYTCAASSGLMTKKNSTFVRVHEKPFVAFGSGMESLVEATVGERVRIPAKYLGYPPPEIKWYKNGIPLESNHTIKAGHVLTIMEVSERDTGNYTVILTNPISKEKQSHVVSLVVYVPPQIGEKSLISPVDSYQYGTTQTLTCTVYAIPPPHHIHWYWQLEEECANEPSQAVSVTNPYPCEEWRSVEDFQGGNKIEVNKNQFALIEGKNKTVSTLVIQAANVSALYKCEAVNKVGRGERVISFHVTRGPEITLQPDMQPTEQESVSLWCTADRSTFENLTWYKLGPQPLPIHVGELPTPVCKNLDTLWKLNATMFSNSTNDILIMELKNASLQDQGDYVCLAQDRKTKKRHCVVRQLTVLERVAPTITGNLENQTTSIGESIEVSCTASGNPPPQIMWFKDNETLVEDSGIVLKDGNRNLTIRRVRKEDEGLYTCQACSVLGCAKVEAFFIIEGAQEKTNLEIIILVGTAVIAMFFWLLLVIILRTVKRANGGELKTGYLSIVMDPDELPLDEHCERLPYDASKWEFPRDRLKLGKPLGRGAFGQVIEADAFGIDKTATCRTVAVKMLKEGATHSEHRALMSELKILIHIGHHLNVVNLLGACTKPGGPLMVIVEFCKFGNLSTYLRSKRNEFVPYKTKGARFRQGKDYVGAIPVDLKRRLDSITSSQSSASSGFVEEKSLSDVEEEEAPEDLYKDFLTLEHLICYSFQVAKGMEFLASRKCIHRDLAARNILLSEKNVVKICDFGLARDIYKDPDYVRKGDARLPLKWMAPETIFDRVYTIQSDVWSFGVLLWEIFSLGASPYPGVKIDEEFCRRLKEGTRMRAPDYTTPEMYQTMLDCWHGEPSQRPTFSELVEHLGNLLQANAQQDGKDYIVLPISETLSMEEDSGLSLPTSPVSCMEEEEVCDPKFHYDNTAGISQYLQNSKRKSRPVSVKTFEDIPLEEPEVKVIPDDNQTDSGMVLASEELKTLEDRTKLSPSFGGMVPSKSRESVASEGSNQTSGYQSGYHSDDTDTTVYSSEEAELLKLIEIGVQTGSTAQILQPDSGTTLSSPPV

[10] = target: Dual specificity protein kinase CLK4 (Homo sapiens, UniProt Q9HAZ1); assay type: functional
Dual specificity protein kinase CLK4, sequence (Q9HAZ1 whole entry): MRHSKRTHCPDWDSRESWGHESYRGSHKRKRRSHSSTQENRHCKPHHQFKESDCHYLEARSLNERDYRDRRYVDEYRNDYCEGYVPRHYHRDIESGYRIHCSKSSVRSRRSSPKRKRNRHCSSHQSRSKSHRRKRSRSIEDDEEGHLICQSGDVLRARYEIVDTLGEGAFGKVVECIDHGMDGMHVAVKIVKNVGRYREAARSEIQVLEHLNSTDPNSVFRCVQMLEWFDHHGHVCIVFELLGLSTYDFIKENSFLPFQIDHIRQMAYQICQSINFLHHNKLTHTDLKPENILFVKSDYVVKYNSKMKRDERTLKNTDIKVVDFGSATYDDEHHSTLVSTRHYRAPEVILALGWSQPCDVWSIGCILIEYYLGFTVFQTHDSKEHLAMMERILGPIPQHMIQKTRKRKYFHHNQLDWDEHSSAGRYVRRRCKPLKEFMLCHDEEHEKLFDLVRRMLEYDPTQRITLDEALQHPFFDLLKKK

[11] = target: Cyclin-dependent kinase 19 (Homo sapiens, UniProt Q9BWU1); assay: Navigating the Kinome. Panel member name: CDC2L6; assay type: functional
[12] = target: Dual specificity tyrosine-phosphorylation-regulated kinase 1A (Homo sapiens, UniProt Q13627); assay type: functional;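 further: measured against DYRK1A as one member of a broad kinome profiling panel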
[13] = target: Platelet-derived growth factor receptor beta (Homo sapiens, UniProt P09619); assay type: functional;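 further: value comes from a kinome panel, with PDGFRB tested as one panel member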
[14] = target: Protein kinase C theta type (Homo sapiens, UniProt Q04759); assay: Navigating the Kinome. Panel member name: PRKCQ; assay type: functional
[15] = target: Cyclin-dependent kinase 9 (Homo sapiens, UniProt P50750); assay type: functional;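 further: value from the CDK9 entry of a kinome-spanning kinase panel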
[16] = target: Dual specificity tyrosine-phosphorylation-regulated kinase 1B (Homo sapiens, UniProt Q9Y463); assay: Navigating the Kinome. Panel member name: DYRK1B; assay type: functional
[17] = target: cAMP-dependent protein kinase catalytic subunit alpha (Homo sapiens, UniProt P17612); assay type: functional
Aurora kinase A = target: T4, Aurora kinase A (Homo sapiens, UniProt O14965); assay type: functional;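 further: value from the Navigating the Kinome kinase panel profiling, panel entry STK6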
T4 sequence (O14965 whole entry): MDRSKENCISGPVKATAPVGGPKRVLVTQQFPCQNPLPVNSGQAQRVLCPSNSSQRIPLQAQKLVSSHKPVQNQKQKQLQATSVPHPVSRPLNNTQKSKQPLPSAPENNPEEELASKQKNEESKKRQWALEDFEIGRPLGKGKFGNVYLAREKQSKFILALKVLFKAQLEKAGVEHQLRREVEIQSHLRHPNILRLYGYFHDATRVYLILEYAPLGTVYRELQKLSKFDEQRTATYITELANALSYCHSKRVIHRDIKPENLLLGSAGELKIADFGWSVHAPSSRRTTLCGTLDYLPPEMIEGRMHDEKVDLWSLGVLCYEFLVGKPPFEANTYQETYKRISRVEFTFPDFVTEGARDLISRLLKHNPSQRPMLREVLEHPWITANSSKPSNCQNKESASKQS

[18] = target: 5'-AMP-activated protein kinase catalytic subunit alpha-1 (Homo sapiens, UniProt Q13131); assay type: functional
[19] = target: Macrophage-stimulating protein receptor (Homo sapiens, UniProt Q04912); assay: Navigating the Kinome. Panel member name: MST1R; assay type: functional
[20] = target: Platelet-derived growth factor receptor alpha (Homo sapiens, UniProt P16234); assay: Navigating the Kinome. Panel member name: PDGFRA; assay type: functional
Activated CDC42 kinase 1 = Activated CDC42 kinase 1 (Homo sapiens, UniProt Q07912); assay: Navigating the Kinome. Panel member name: ACK1; assay type: functional
[21] = target: Leukocyte tyrosine kinase receptor (Homo sapiens, UniProt P29376); assay: Navigating the Kinome. Panel member name: LTK; assay type: functional
Focal adhesion kinase 1 = Focal adhesion kinase 1 (Homo sapiens, UniProt Q05397); assay type: functional;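 further: measured as one member of a kinome panel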
Focal adhesion kinase 1, sequence (Q05397 whole entry, canonical isoform): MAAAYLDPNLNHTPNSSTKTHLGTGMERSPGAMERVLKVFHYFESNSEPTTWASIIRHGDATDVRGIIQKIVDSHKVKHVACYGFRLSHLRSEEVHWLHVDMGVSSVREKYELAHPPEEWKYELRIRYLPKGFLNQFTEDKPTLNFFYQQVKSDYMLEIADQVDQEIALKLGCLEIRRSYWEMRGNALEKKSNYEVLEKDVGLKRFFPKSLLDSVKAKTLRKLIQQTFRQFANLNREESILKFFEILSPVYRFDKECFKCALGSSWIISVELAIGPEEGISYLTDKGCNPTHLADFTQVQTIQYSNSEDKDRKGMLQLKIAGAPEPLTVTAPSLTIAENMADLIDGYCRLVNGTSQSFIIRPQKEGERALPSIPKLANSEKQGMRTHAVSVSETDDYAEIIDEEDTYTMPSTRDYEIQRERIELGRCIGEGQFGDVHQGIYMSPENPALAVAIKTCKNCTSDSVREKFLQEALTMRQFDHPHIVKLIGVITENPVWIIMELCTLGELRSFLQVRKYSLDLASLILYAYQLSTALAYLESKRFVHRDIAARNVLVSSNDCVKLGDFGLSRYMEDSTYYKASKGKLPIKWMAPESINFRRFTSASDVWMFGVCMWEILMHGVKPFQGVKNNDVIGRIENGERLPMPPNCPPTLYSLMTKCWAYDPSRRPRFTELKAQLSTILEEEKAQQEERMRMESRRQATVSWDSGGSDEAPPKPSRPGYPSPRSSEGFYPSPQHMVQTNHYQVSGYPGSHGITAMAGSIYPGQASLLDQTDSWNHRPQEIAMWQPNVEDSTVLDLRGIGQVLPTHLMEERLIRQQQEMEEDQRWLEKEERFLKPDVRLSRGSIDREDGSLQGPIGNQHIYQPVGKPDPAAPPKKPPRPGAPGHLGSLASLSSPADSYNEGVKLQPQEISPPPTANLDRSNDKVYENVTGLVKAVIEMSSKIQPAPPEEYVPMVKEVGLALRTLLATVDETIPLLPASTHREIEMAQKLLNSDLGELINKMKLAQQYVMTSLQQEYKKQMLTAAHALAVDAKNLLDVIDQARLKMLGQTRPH

[22] = target: Casein kinase I isoform alpha (Homo sapiens, UniProt P48729); assay type: functional
[23] = target: Dual specificity mitogen-activated protein kinase kinase 2 (Homo sapiens, UniProt P36507); assay: Navigating the Kinome. Panel member name: MAP2K2; assay type: functional
Dual specificity mitogen-activated protein kinase kinase 2, sequence (P36507 whole entry): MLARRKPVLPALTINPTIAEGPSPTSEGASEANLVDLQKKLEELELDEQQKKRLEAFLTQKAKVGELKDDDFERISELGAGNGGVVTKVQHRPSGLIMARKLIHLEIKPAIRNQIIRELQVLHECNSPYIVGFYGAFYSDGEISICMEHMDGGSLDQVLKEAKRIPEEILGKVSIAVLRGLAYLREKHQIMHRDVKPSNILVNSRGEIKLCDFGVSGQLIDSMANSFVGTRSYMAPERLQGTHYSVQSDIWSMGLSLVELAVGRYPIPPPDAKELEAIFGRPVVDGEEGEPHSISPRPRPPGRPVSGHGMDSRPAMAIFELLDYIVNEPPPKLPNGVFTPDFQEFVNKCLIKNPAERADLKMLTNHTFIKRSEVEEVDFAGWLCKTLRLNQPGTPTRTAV

[24] = target: T5, cAMP-dependent protein kinase catalytic subunit PRKX (Homo sapiens, UniProt P51817); assay type: functional
T5 sequence (P51817 whole entry): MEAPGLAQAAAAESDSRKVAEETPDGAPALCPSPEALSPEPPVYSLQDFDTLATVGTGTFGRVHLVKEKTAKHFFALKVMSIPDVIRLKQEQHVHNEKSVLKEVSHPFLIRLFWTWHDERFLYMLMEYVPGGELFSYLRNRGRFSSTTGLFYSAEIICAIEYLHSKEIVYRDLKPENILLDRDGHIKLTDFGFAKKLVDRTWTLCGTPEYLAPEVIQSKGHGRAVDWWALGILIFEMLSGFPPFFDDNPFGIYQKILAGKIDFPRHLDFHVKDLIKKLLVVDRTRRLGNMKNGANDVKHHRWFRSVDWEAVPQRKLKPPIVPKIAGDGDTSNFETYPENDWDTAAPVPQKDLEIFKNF

[25] = target: Dual specificity protein kinase CLK2 (Homo sapiens, UniProt P49760); assay type: functional
Dual specificity protein kinase CLK2, sequence (P49760 whole entry): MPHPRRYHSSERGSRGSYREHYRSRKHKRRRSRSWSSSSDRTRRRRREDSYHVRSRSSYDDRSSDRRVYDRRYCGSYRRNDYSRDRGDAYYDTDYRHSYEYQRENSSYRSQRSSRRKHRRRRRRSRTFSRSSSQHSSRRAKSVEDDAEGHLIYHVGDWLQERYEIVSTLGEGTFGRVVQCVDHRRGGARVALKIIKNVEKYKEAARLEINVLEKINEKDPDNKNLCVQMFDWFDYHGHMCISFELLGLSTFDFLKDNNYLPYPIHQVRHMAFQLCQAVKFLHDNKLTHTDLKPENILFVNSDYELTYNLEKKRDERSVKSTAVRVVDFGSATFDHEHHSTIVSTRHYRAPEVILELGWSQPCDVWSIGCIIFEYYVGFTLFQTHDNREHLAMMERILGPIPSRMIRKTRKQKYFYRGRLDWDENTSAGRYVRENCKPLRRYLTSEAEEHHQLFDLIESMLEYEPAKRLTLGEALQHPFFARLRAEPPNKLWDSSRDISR

[26] = target: Cyclin-dependent kinase 5 (Homo sapiens, UniProt Q00535); assay type: functional;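 further: CDK5 measured as one member of a kinase profiling panel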
[27] = target: Dual specificity mitogen-activated protein kinase kinase 1 (Homo sapiens, UniProt Q02750); assay: Navigating the Kinome. Panel member name: MAP2K1; assay type: functional

Compound: COC(=O)CSc1nnc(-c2ccc(S(=O)(=O)NCc3ccccc3Cl)cc2)o1
- IC50 [1]: > 64.6 µM (inactive)
- IC50 (Melanocortin receptor 4): > 64.6 µM (inactive)

Compound: CS(=O)(=O)c1ccc(N)c(SSc2cc(S(C)(=O)=O)ccc2N)c1
- IC50 (Large T antigen): 13 µM (active)
- IC50 [2]: 23.9 µM (inactive)
- EC50 [3]: > 104 µM (inactive)
- IC50 [4]: > 55.7 µM (not active)
- IC50 (Insulin-degrading enzyme): 7.08 µM (active)

Compound: O=C(Oc1cccc(C(=S)N2CCOCC2)c1)c1ccc([N+](=O)[O-])cc1[N+](=O)[O-]
- IC50 [1]: > 64.6 µM (inactive)
- IC50 (Melanocortin receptor 4): > 64.6 µM (inactive)

Second part, the compound after the results:

- IC50 [5]: 1.51 µM (active)
Compound: COc1ccc(-c2cc(C(=O)N3CC(C)CC(C)C3)c3ccccc3n2)cc1OC (centres undefined)

- Ki [6]: 25.1 µM (active)
- Ki [7]: 79.4 µM (active)
- Ki [8]: > 100 µM (inactive)
- Ki [9]: > 100 µM (inactive)
- Ki [10]: 1.58 µM (active)
- Ki [11]: > 100 µM (inactive)
- Ki [12]: > 79.4 µM (inactive)
- Ki [13]: > 79.4 µM (inactive)
- Ki [14]: > 100 µM (inactive)
- Ki [15]: > 63.1 µM (inactive)
- Ki [16]: 100 µM (active)
- Ki [17]: > 50.1 µM (inactive)
- Ki (Aurora kinase A): > 63.1 µM (inactive)
Compound: O=C1NCc2ccc(-c3ccccc3)cc21

- Ki [6]: > 3.98 µM (inactive)
- Ki [18]: > 3.16 µM (inactive)
- Ki [19]: 0.2 µM (active)
- Ki [20]: > 2.51 µM (inactive)
- Ki (Activated CDC42 kinase 1): > 3.98 µM (inactive)
- Ki [21]: > 2.51 µM (inactive)
- Ki (Focal adhesion kinase 1): > 6.31 µM (inactive)
- Ki [22]: > 3.98 µM (inactive)
- Ki [23]: > 3.98 µM (inactive)
- Ki [9]: 2 µM (active)
- Ki [12]: > 2 µM (inactive)
- Ki [24]: > 3.16 µM (inactive)
- Ki [25]: 0.158 µM (active)
- Ki [17]: 0.631 µM (active)
- Ki [26]: > 3.16 µM (inactive)
- Ki [27]: > 3.16 µM (inactive)
Compound: CN(C)CC1CCn2cc(c3ccccc32)C2=C(C(=O)NC2=O)c2cn(c3ccccc23)CCO1 (centres undefined)
